Experimental data taken from patent US6858638B2, “Substituted indazoles, compositions containing them, method of production and use” (Aventis Pharma S.A., priority 2002, dated 2005).

Legend:
human Tie2 = target: T1, human Tie2 (Homo sapiens, UniProt Q02763); assay: Tie2 phosphorylation of PLC, FlashPlate radioactivity assay; format: biochemical; details: read-out: TIE2 % inhib at 10 μM
T1 construct: amino acids of the intracellular domain 776-1124; made in house; host or cells: baculovirus expression system (vector pFastBacGT)
Method: The coding sequence of human Tie2 corresponding to the amino acids of the intracellular domain 776-1124 was generated by PCR using the cDNA isolated from human placenta as model. This sequence was introduced into a baculovirus expression vector pFastBacGT in the form of a GST fusion protein.
The inhibitory effect of the molecules is determined in an assay of phosphorylation of PLC by Tie2 in the presence of GST-Tie2 purified to approximately 80% homogeneity. The substrate is composed of the SH2-SH3 fragments of PLC exprressed in the form of a GST fusion protein.
The kinase activity of Tie2 is measured in a 20 mM MOPS buffer, pH 7.2, containing 10 mM MgCl2, 10 mM MnCl2, 1 mM DTT and 10 mM of glycerophosphate. A reaction mixture composed of 70 μl of kinase buffer containing 100 ng of GST-Tie2 enzyme per well is placed in a FlashPlate 96-well plate kept on ice. 10 μl of the test molecule diluted in DMSO at a maximum concentration of 10% are then added. For a given concentration, each measurement is carried out in quadruplicate. The reaction is initiated by adding 20 μl of solution containing 2 μg of GST-PLC, 2 μM of cold ATP and 1 μCi of ^33P[ATP]. After incubation for 1 hour at 37° C., the reaction is stopped by adding 1 volume (100 μl) of 200 mM EDTA. After removing the incubation buffer, the wells are washed three times with 300 μl of PBS. The radioactivity is measured on a Wallac MicroBeta 1450.
The inhibition of the Tie2 activity is calculated and expressed as percentage inhibition compared to the control activity determined in the absence of compound.

[1] = target: T2, human IGF1R cytoplasmic domain (Homo sapiens, UniProt P08069); assay: IGF1R autophosphorylation inhibition, time resolved fluorescence (HTRF) assay; format: biochemical; details: 10 μM; read-out: IGF1R % inhib at 10 μM
T2 construct: The human IGF1R cytoplasmic domain was cloned; made in house; host or cells: SF21 insect cells (baculovirus)
Summary of the method: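 GST-tagged human IGF1R cytoplasmic domain from SF21 cells incubated with compound in 50 mM Hepes pH 7.5, 5 mM MnCl2, 50 mM NaCl, […] ATP. Autophosphorylation detected by HTRF (Eu-K anti-phosphotyrosine, XL665 anti-GST) after EDTA/KF stop; percentage inhibition versus no-compound control.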

c-Src protein = assay: Src kinase phosphorylation of biotinylated cdc2 substrate, fluorescence (DELFIA); format: biochemical, human
Method: The inhibition of the Src kinase is evaluated by measuring the phosphorylation of the biotinylated cdc2 substrate (Pierce) detected by fluorescence (DELFIA) using an antiphosphotyrosine antibody labeled with Europium, in 96-well Wallac plates. The c-Src protein used is a recombinant human protein produced in Baculovirus, comprising the SH3 and SH2 and the catalytic domains. The enzyme, the substrate and the various concentrations of test compounds are placed in the well in a 50 mM Tris buffer containing 10 mM MgCl2. The reaction is initiated by adding 10 μM of ATP. After incubation for 60 minutes at 30° C., the reaction is stopped by adding 75 mM EDTA. 50 μl are taken from each well and transferred into a plate coated with streptavidin. After incubation for 30 minutes at 25° C., the wells are washed with a washing buffer (Wallac) and then the antiphosphotyrosine antibody (PY20-Europium [Perkin Elmer]) is added in a volume of 75 μl. The plate is incubated for 30 minutes at 25° C. and then an “Enhancer” solution (Wallac) is added before reading the fluorescence using a fluorimeter (Perkin Elmer). The background noise is evaluated in triplicate in wells containing the substrate and the antibody in the absence of enzyme. The activity of the enzyme is measured (in triplicate) in the wells containing all the reagents in the absence of compound. The inhibition of the Src activity is expressed as percentage inhibition of the activity of the control determined in the absence of compound. The compound PP2 (Calbiochem) is included at various concentrations in each experiment as an inhibition control.

T1 sequence (Q02763 776-1124): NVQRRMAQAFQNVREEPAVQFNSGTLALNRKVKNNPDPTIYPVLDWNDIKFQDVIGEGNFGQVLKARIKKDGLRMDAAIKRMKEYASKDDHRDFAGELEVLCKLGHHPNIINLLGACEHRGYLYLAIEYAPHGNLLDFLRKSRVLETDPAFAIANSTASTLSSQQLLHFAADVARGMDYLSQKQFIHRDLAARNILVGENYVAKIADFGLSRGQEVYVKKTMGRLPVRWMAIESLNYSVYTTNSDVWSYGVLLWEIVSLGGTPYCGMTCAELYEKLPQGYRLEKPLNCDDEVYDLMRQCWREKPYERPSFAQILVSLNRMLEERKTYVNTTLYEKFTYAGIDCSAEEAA
T2 sequence (P08069 960-1367 limits assumed): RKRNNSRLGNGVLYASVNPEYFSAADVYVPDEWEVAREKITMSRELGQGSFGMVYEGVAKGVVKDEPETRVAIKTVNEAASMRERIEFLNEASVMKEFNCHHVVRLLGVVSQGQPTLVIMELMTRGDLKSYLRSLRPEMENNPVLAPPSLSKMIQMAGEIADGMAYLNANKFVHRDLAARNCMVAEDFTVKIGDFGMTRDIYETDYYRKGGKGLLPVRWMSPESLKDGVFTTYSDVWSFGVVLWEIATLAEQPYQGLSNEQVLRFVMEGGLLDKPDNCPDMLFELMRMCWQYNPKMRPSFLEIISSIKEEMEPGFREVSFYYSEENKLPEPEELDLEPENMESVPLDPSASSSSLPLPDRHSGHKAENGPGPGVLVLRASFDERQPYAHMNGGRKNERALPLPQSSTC

Compound | inhibition at 10 µM (human Tie2) [%] | melting point [°C] | inhibition at 10 µM [1] [%] | SRC % inhib at 10 μM (c-Src protein) [%]
Cc1n[nH]c2ccc(NS(=O)(=O)c3cccc(F)c3)cc12 [Example 9, 3-Fluoro-N-(3-methyl-1H-indazol-5-yl)benzenesulfonamide] | 29 | 120 |  | 
CS(=O)(=O)c1ccccc1S(=O)(=O)Nc1ccc2[nH]nc(-c3ccc(Cl)cc3)c2c1 [Example 30, N-[3-(4-Chlorophenyl)-1H-indazol-5-yl]-2-methylsulfonylbenzenesulfonamide] |  | 242 | 96 | 72
O=S(=O)(Nc1ccc2[nH]nc(-c3ccccc3)c2c1)c1ccc(Cl)c(Cl)c1 [Example 8, 3,4-Dichloro-N-(3-phenyl-1H-indazol-5-yl)benzenesulfonamide] | 56 | 216 |  | 
O=S(=O)(Nc1ccc2[nH]nc(-c3ccccc3)c2c1)c1ccccc1C(F)(F)F [Example 109, N-(3-Phenyl-1H-indazol-5-yl)-2-trifluoromethylbenzene-sulfonamide] |  |  | 81 | 42
Cc1ccccc1S(=O)(=O)Nc1ccc2[nH]nc(-c3ccccc3)c2c1 [Example 132, 2-Methyl-N-(3-phenyl-1H-indazol-5-yl)-benzenesulfonamide] |  |  | 77 | 18
CS(=O)(=O)c1ccccc1S(=O)(=O)Nc1ccc2[nH]nc(-c3cc4ccccc4[nH]3)c2c1 [Example 61, N-[3-(1H-Indol-2-yl)-1H-indazol-5-yl]-2-methylsulfonylbenzenesulfonamide] |  |  | 99 | 99
O=S(=O)(Nc1ccc2[nH]nc(-c3ccccc3)c2c1)c1ccccc1 [Example 112, N-(3-Phenyl-1H-indazol-5-yl)benzenesulfonamide] |  |  | 84 | 47
CS(=O)(=O)c1ccccc1S(=O)(=O)Nc1ccc2[nH]nc(-c3cccc(N)c3)c2c1 [Example 62, N-[3-(3-Aminophenyl)-1H-indazol-5-yl]-2-methylsulfonylbenzenesulfonamide] |  | 220 | 88 | 95
O=S(=O)(Nc1ccc2[nH]nc(-c3ccccc3)c2c1)c1ccc(Cl)s1 [Example 135, 5-Chloro-N-(3-phenyl-1H-indazol-5-yl)thiophene-2-sulfonamide] |  |  | 65 | 54
Cc1n[nH]c2ccc(NS(=O)(=O)c3ccccc3S(C)(=O)=O)cc12 [Example 10, 2-Methylsulfonyl-N-(3-methyl-1H-indazol-5-yl)benzenesulfonamide] | 33 |  |  | 
O=S(=O)(Nc1ccc2[nH]nc(-c3ccccc3)c2c1)c1cccc(F)c1 [Example 6, 3-Fluoro-N-(3-phenyl-1H-indazol-5-yl)benzenesulfonamide] | 74 | 200 |  | 55
CS(=O)(=O)c1ccccc1S(=O)(=O)Nc1ccc2[nH]nc(-c3cc4ccccc4s3)c2c1 [Example 65, N-(3-Benzo[b]thiophen-2-yl-1H-indazol-5-yl)-2-methylsulfonylbenzenesulfonamide] |  | 270 | 63 | 96
CS(=O)(=O)c1ccccc1S(=O)(=O)Nc1ccc2[nH]nc(Cl)c2c1 [Example 1, N-(3-Chloro-1H-indazol-5-yl)-2-methylsulfonylbenzenesulfonamide] | 18 |  |  | 
CS(=O)(=O)c1ccccc1S(=O)(=O)Nc1ccc2[nH]nc(-c3ccccc3)c2c1 [Example 7, 2-Methylsulfonyl-N-(3-phenyl-1H-indazol-5-yl)benzenesulfonamide] | 86 | 223 |  | 89
O=S(=O)(Nc1ccc2[nH]nc(-c3ccccc3)c2c1)c1cc(F)cc(F)c1 [Example 158, 3,5-Difluoro-N-(3-phenyl-1H-indazol-5-yl)-benzenesulfonamide] |  |  | 68 | 75

The next lines start with the values.

inhibition at 10 µM (human Tie2) [%] | melting point [°C] | inhibition at 10 µM [1] [%] | SRC % inhib at 10 μM (c-Src protein) [%] | Compound
 | 255 | 99 | 98 | CS(=O)(=O)c1ccccc1S(=O)(=O)Nc1ccc2[nH]nc(-c3ccc[nH]3)c2c1 [Example 60, 2-Methylsulfonyl-N-[3-(1H-pyrrol-2-yl)-1H-indazol-5-yl]benzenesulfonamide]
15 |  |  |  | O=S(=O)(Nc1ccc2[nH]nc(Cl)c2c1)c1cccc(F)c1 [Example 3, N-(3-Chloro-1H-indazol-5-yl)-3-fluorobenzenesulfonamide]
22 | 245 |  |  | CS(=O)(=O)c1ccccc1S(=O)(=O)Nc1ccc2[nH]ncc2c1 [Example 13, 2-Methylsulfonyl-N-(1H-indazol-5-yl)benzenesulfonamide]
 |  | 56 | 39 | O=S(=O)(Nc1ccc2[nH]nc(-c3ccccc3)c2c1)c1ccc(F)cc1 [Example 117, 4-Fluoro-N-(3-phenyl-1H-indazol-5-yl)-benzenesulfonamide]
 |  | 40 | 24 | O=C(O)c1cccc(S(=O)(=O)Nc2ccc3[nH]nc(-c4ccccc4)c3c2)c1 [Example 133, 3-(3-Phenyl-1H-indazol-5-ylsulfamoyl)benzoic acid]
 |  | 51 | 36 | COc1ccc(OC)c(S(=O)(=O)Nc2ccc3[nH]nc(-c4ccccc4)c3c2)c1 [Example 131, 2,5-Dimethoxy-N-(3-phenyl-1H-indazol-5-yl)-benzenesulfonamide]
 |  | 81 | 46 | CN(C)c1ccc(-c2n[nH]c3ccc(NS(=O)(=O)c4ccccc4S(C)(=O)=O)cc23)cc1 [Example 63, N-[3-(4-Dimethylaminophenyl)-1H-indazol-5-yl]-2-methylsulfonylbenzenesulfonamide]
 |  | 72 | 39 | Cc1cccc(S(=O)(=O)Nc2ccc3[nH]nc(-c4ccccc4)c3c2)c1 [Example 138, 3-Methyl-N-(3-phenyl-1H-indazol-5-yl)-benzenesulfonamide]
